Assay results from publication PMC5799700, “Screening for PPAR Non-Agonist Ligands Followed by Characterization of a Hit, AM-879, with Additional No-Adipogenic and cdk5-Mediated Phosphorylation Inhibition Properties” (Frontiers in Endocrinology, 2018).
Entries after “also recorded” stand apart in the source; their conditions may differ.

Legend:
[1] = system: PPARγ target genes in 3T3-L1 cells; experiment: Gene expression analysis (RT-qPCR) in differentiated 3T3-L1 cells; format: cell-based; conditions: 1 μM ligand, vs DMSO
Procedure: Total RNA from differentiated 3T3-L1 cells was extracted by RNeasy kit (Qiagen) and cDNAs were synthesized with High-Capacity cDNA Reverse Transcription Kit (ThermoFischer Scientific). Quantitative PCR reactions were performed with SYBR Real Time PCR master mixes (ThermoFischer Scientific) and 50 ng of cDNA, in a 7500 Real Time PCR system (Applied Biosystems). Relative mRNA expression was determined by the ΔΔ-Ct method normalized to GAPDH levels. The sequences of primers used in this study are presented in Table S2 in Supplementary Material.

3T3-L1 cells = experiment: Adipocyte differentiation assay, Oil Red O; format: cell-based; conditions: 1 μM ligand; for Adipocyte differentiation / adipogenesis (in words): Oil Red O staining
Procedure: 3T3-L1 (ATCC® CRL-3242™) cells were cultured in DMEM (Gibco®) supplemented with 10% (v/v) fetal bovine serum, 50 U/mL penicillin, and […] streptomycin, at 37°C, and humidified atmosphere of 5% CO2. After achieved 70% confluency, cells were trypsinized and seeded in 6-well plates (Corning) at a density of 2.8 × 10^5 cells/well. After 2 days, cells were treated with dexamethasone ([…]) to induce preadipocytes differentiation, and 1 μM of Rosi, 1 μM of AM-879, or 1% DMSO. After treatment, the culture medium was exchanged every 48 h, supplemented with 1 μM of each ligand, for 6 days. In order to measure adipocyte differentiation, fully differentiated 3T3-L1 cells were washed with phosphate-buffered saline (PBS), fixed with 10% formalin (v/v) for 1 h, and then, stained with oil red solution (Oil Red O) (0.3% in isopropanol 60%) for 20 min. After staining, cells were washed with PBS and photographed in Nikon MTS microscope (Nikon). Lipid accumulation was also quantified by Oil Red O absorbance measurement at 520 nm. For this measurement, cells lysis was performed in 200 μL of isopropanol and 4% Igepal solution, and the absorbance of the samples was recorded in a 10-mm cuvette in a spectrophotometer (V-530, Jasco). Data were compared using unpaired t-test.

[2] = target: T1, CDK5-mediated phosphorylation of PPARγ at serine 273 (Homo sapiens, UniProt P37231); experiment: In vitro phosphorylation assay (ADP-Glo); format: biochemical; conditions: PPARγ LBD 1.2 μM, 5 M excess of ligand, 50 ng CDK5/p35, ATP 10 μM, 1 h
T1 construct: construction (isoform PPARγ1), encoding AAs 207–477, inserted in pET 28a (+); host or cells: Escherichia coli BL21 (DE3) for PPARγ LBD
T1 sequence (P37231 207-477 isoform P37231-2): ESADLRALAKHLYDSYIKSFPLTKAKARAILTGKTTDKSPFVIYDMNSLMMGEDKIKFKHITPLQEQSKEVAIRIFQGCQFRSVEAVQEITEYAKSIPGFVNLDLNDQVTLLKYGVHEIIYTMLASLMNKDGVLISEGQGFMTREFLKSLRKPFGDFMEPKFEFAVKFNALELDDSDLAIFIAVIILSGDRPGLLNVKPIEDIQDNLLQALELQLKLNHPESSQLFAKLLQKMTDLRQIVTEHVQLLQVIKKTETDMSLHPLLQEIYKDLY
Procedure: Then, protein and ligands were incubated with 50 ng CDK5/p35 (Sigma), for 1 h, at room temperature, in the CDK5/p35 reaction buffer (composition recommended by manufacturer) and in the presence of ATP 10 μM. After reaction, ADP detection was performed by using ADP-Glo™ kinase assay (Promega) following manufacturer’s instructions. Luminesce signal was recorded using GloMax-Multi + Detection System (Promega) microplate luminometer.

PPARγ [3] = target: T2, PPARγ (Homo sapiens, UniProt P37231); experiment: Cell transactivation assay, GAL4-PPARγ-LBD reporter gene; format: cell-based; conditions: 293T cells, up to 0.1 mM
T2 construct: a chimeric protein composed by GAL4-DBD and PPARγ-LBD; expressed in transfected cells; host or cells: 293T (ATCC CRL-3216)
T2 sequence (P37231 238-503 limits assumed): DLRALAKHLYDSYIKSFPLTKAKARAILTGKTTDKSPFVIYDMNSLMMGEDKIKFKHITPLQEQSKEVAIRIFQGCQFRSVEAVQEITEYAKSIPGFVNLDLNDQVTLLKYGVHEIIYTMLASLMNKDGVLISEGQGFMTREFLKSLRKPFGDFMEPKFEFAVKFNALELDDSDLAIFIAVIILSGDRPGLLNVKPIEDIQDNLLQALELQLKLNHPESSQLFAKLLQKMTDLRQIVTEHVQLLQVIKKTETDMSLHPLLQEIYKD
Procedure: (§1) For transactivation assays, cells were seeded in 24-well plates (density of 2.0 × 10^5 cells/well), and transiently transfected with Lipofectamine® 2000 (Invitrogen) and 0.5 μg of the following plasmids: pRL-TK, a transfection control, which express Renilla reniformis luciferase constitutively; pGRE-LUC, which contains responsive element for GAL4 protein followed by reporter gene of firefly luciferase; pBIND-PPARγ, a chimeric protein composed by GAL4-DBD and PPARγ-LBD, under control of the cytomegalovirus promoter (CMV), in a proportion of 1.5 μg DNA:2 μL of Lipofectamine. As negative control, empty BlueScript plasmid was used instead of pBIND-PPARγ. For isotype specificity transactivation assay, cells were seeded in 96-well plates (density of 4.0 × 10^4 cells/well) and transfected with pRL-TK; pGRE-LUC and pBIND-PPARα; and pBIND-PPARβ.
(§2) Four hours after transfection, the culture medium was exchanged to DMEM plus 10% FBS Charcoal stripped broth and 1 μM of each tested compound, Rosi or 1% DMSO was added to each well. In dose–response experiments, concentration of compounds was increased from 0.01 to 0.1 mM. After 24 h of treatment, reporter gene expression was measured with Dual-Luciferase® Reporter (DLR™) Assay System (Promega), according to manufacturer’s instructions in a GloMax-Multi + Detection System (Promega). […]

PPARγ [4] = target: T2, PPARγ; set-up: method as in PMID 24075729; conditions: cited from earlier work
PPARβ = target: T3, PPARβ (Homo sapiens, UniProt Q03181); experiment: Isotype specificity transactivation assay, GAL4-PPARβ-LBD reporter gene; format: cell-based; conditions: 293T cells, ligands 1 μM, compared with full agonist
T3 construct: using a GAL4-PPARα-LBD (A) or GAL4-PPARβ-LBD (B) reporter gene; expressed in transfected cells; host or cells: HEK 293T
T3 sequence (Q03181 211-439 limits assumed): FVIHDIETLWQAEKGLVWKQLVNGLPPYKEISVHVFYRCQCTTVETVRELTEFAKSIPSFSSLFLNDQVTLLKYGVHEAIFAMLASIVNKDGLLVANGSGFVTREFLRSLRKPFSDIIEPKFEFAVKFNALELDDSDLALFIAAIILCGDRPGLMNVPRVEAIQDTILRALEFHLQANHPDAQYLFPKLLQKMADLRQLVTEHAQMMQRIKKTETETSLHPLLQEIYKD
Procedure: as §1, with “293T (ATCC® CRL-3216™) cells were cultured in Dulbecco’s Modified Eagle’s Medium (DMEM, Gibco®) supplemented with 10% (v/v) fetal bovine serum, 50 U/mL penicillin, and […] streptomycin, at 37°C, and humidified atmosphere of 5% CO2. For” for “For”, “For isotype specificity transactivation assay, cells were seeded in 96-well plates (density of 4.0 × 10^4 cells/well) and transfected with pRL-TK; pGRE-LUC and pBIND-PPARα; and pBIND-PPARβ.” left out
as §2, with “In dose–response experiments, concentration of compounds was increased from 0.01 to 0.1 mM.” left out

PPARγ LBD [5] = target: T4, PPARγ LBD (Homo sapiens, UniProt P37231); experiment: Thermal shift assay (TSA), SYPRO Orange; format: binding; conditions: PPARγ 4 μM, threefold ligand excess (12 μM)
T4 construct: construction (isoform PPARγ1), encoding AAs 207–477, inserted in pET 28a (+); made in house; host or cells: Escherichia coli BL21 (DE3)
T4 sequence (P37231 207-477 isoform P37231-2): T1 sequence (P37231 207-477 isoform P37231-2)
Procedure: Protein thermal unfolding was monitored by measuring the SYPRO® Orange probe (Life technologies) fluorescence. […] Rosi was used as a PPARγ full agonist control and, dimethyl sulfoxide (DMSO), as apo-PPARγ control. TSA was performed in triplicates, in 96-well PCR microplates (Applied Biosystems—Life Technologies), through an RT-PCR device (7500 Real Time PCR System). Samples were heated at 1°C per min, from 10 to 90°C. Fluorescence intensities were plotted as a function of temperature and, the melting temperature (Tm) of the protein unfolding transition was obtained through a Boltzmann model in Origin Pro 8.1 and using an Excel based worksheet (DSF Analysis v3.0.2, ftp://ftp.sgc.ox.ac.uk/pub/biophysics).

PPARγ LBD [6] = target: T4, PPARγ LBD; experiment: ANS fluorescence quenching ligand-binding assay; conditions: PPARγ 1 μM, ANS 10 μM, ligand 0.1-60 μM, Hill model, 25°C; read-out: Kd (dissociation constant) from ANS displacement
Procedure: 8-Anilino-1-naphthalenesulfonic acid fluorescence quenching assay was performed incubating 1 μM of PPARγ with 10 μM of the fluorescent probe ANS for 30 min. Following this, increasing concentrations (0.1–60 μM) of the pre-selected 20 compounds were titrated in protein-ANS solution. […] Fluorescence data were fitted to binding curves using Hill model for dissociation constant (Kd) calculation. All experiments were performed in triplicates and data were processed using the software Origin Pro 8.1.

PPARα = target: T5, PPARα (Homo sapiens, UniProt Q07869); experiment: Isotype specificity transactivation assay, GAL4-PPARα-LBD reporter gene; format: cell-based; conditions: 293T cells, ligands 1 μM, compared with full agonist
T5 construct: using a GAL4-PPARα-LBD (A) or GAL4-PPARβ-LBD (B) reporter gene; expressed in transfected cells; host or cells: HEK 293T
T5 sequence (Q07869 239-466 limits assumed): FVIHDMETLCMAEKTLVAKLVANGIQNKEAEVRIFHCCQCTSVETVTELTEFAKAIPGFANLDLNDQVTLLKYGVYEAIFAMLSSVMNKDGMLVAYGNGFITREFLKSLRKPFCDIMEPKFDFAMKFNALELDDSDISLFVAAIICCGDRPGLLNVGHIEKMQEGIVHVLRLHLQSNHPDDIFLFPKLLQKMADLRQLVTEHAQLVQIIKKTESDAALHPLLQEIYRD
Procedure: as §1, with “293T (ATCC® CRL-3216™) cells were cultured in Dulbecco’s Modified Eagle’s Medium (DMEM, Gibco®) supplemented with 10% (v/v) fetal bovine serum, 50 U/mL penicillin, and […] streptomycin, at 37°C, and humidified atmosphere of 5% CO2. For” for “For”, “For isotype specificity transactivation assay, cells were seeded in 96-well plates (density of 4.0 × 10^4 cells/well) and transfected with pRL-TK; pGRE-LUC and pBIND-PPARα; and pBIND-PPARβ.” left out
as §2, with “In dose–response experiments, concentration of compounds was increased from 0.01 to 0.1 mM.” left out

PPARγ LBD [7] = target: T4, PPARγ LBD; experiment: NanoDSF, intrinsic tryptophan and tyrosine fluorescence; format: binding; conditions: PPARγ 25 μM, ligand 75 μM (3 M excess)
Procedure: Intrinsic tryptophan and tyrosine fluorescence were measured using NT48 device (NanoTemper), as a more sensitive technology to check protein stability in comparison to TSA. […] The initial fluorescence scan of loaded capillaries was performed at 20°C, monitoring emission wavelength at 330 and 350 nm in order to find the optimal signal range. After this step, samples were subjected to a temperature ramp of 1°C/min from 20 to 90°C and fluorescence was constantly monitored. Data were analyzed and Tm was determined using PR. ThermControl software (NanoTemper).

Decrease of CDK5-mediated phosphorylation of PPARγ (Ser 273) [2]	PPARβ activation (PPARβ)	Tm from TSA (PPARγ LBD [5])	Kd (PPARγ LBD [6])	PPARα activation (PPARα)	Tm from nanoDSF (PPARγ LBD [7])	SMILES	Adipoq (Adiponectin) relative expression [1]	Cd36 relative expression [1]	Cebpa relative expression [1]	Cfd (Adipsin) relative expression [1]	Lep (Leptin) relative expression [1]	Lpl relative expression [1]	Pparg relative expression [1]	Lipid accumulation (Oil Red O absorbance at 520 nm) in comparison with DMSO (3T3-L1 cells; 6 days)	Adipocyte differentiation / adipogenesis (in words) (3T3-L1 cells)	PPARγ activation (dose-response, in words) (PPARγ [3])	Effect on PPARγ activation (earlier description as possible antagonist) (PPARγ [4])
28%	none of them activated	49.83 ± 0.01 °C	4.5 ± 0.6 µM	none of them activated	48.8 ± 0.114 °C	O=C(O)c1ccc(COc2ccccc2C=C2C(=O)c3ccccc3C2=O)cc1 [AM-879, 4-({2-[(1,3-dioxo-1,3-dihydro-2H-inden-2-ylidene)methyl]phenoxy}methyl) benzoic acid]	slightly reduced levels	slightly reduced levels	did not alter	slightly reduced levels	did not alter	did not alter	did not alter	1.12 ± 0.13 fold	did not induce a significant increase in adipocyte differentiation	did not activate PPARγ even at the highest concentration; also recorded: did not present any significant change in PPARγ activation	reduced the activation of the receptor
–	none of them activated	49.4 ± 0.1 °C	3.3 ± 0.7 µM	none of them activated	48.0 ± 0.172 °C	O=C(O)c1ccc(/C=C/C(=O)c2ccc3ccccc3c2)cc1 [P11]	–	–	–	–	–	–	–	–	–	did not activate PPARγ even at the highest concentration; also recorded: did not present any significant change in PPARγ activation	–
–	–	–	–	–	–	CN(CCOc1ccc(CC2SC(=O)NC2=O)cc1)c1ccccn1 (stereo not drawn) [Rosiglitazone, rosiglitazone, reference compound]	–	–	–	–	–	–	–	–	strongly induced adipogenesis	–	–
